Legend:
Experiment in all cases: Kinase profiling in a biochemical assay panel (mobility shift assays and ELISA), %-inhibition at 1 μM; selectivity entropy
[1] = target: panel of more than 300 wild-type and mutant kinases (313 kinase panel) (Homo sapiens, UniProt Q00534)
[2] = target: T1, panel of more than 300 wild-type and mutant kinases (313 kinase panel) (Homo sapiens, UniProt Q16832)
T1 sequence (Q16832 22-855): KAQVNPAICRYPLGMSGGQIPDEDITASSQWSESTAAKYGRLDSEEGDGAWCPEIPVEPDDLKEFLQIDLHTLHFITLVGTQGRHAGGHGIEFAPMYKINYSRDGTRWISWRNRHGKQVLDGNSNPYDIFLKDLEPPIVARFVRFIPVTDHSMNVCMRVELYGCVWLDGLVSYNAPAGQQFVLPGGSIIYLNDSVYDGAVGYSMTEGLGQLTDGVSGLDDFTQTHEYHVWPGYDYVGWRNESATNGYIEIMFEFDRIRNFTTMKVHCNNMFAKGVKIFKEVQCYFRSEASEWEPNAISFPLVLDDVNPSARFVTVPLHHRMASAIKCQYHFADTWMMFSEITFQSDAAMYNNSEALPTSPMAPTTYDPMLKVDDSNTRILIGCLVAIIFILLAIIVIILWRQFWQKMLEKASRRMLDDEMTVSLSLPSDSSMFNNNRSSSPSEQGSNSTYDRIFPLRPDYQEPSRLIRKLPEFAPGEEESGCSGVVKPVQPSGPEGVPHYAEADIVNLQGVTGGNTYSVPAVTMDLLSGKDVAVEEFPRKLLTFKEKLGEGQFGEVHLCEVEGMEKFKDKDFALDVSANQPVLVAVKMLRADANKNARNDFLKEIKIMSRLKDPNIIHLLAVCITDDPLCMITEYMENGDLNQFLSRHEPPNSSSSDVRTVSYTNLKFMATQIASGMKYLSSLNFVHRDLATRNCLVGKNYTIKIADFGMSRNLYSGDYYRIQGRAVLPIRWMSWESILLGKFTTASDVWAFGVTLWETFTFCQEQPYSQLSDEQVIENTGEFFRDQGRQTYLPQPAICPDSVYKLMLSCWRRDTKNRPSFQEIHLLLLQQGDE

[3] = target: panel of more than 300 wild-type and mutant kinases (313 kinase panel) (Homo sapiens, UniProt Q15208)
[4] = target: panel of more than 300 wild-type and mutant kinases (313 kinase panel) (Homo sapiens, UniProt Q7KZI7)
[5] = target: panel of more than 300 wild-type and mutant kinases (313 kinase panel) (Homo sapiens, UniProt P23458)
[6] = target: panel of more than 300 wild-type and mutant kinases (313 kinase panel) (Homo sapiens, UniProt P45984)
[7] = target: T2, panel of more than 300 wild-type and mutant kinases (313 kinase panel) (Homo sapiens, UniProt Q99683)
T2 sequence (Q99683 1-1374): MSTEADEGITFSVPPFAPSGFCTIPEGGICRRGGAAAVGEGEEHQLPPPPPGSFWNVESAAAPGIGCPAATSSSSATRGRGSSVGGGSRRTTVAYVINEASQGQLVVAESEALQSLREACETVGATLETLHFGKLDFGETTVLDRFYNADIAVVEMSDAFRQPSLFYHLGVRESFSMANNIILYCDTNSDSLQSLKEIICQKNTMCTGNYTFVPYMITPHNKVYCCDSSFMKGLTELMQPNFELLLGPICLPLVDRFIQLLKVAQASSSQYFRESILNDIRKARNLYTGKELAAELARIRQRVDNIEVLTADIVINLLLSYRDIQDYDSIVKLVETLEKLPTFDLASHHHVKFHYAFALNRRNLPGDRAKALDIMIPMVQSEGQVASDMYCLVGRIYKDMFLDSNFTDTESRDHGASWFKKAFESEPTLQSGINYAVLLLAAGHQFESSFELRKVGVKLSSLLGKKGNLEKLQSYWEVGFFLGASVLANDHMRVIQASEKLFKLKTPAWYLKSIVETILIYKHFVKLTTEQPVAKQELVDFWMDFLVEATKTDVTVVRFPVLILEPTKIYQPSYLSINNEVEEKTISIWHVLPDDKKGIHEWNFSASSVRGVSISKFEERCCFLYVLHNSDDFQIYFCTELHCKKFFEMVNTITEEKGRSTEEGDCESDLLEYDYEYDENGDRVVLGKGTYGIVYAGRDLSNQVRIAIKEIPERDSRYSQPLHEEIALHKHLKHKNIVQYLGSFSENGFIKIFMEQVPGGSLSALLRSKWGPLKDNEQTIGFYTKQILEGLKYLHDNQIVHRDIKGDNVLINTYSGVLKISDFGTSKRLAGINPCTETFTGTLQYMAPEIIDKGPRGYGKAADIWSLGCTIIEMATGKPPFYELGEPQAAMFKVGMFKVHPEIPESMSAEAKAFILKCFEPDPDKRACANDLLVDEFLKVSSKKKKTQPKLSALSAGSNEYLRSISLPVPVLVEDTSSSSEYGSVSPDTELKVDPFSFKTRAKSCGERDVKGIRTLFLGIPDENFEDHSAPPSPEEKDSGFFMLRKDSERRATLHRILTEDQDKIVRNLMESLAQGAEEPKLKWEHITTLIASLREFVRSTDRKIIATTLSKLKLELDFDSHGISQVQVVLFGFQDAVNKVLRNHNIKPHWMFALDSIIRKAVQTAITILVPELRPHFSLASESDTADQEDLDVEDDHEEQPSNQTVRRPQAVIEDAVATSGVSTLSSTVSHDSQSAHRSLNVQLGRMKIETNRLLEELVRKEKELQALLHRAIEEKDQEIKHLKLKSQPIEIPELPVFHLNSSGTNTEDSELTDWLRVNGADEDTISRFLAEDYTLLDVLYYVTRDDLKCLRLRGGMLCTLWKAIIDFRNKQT

[8] = kinase CDK6/CycD3, 1 μM compound
[9] = kinase MAP3K5, compound at 1 μM

Chain of panel of more than 300 wild-type and mutant kinases (313 kinase panel) (Homo sapiens, UniProt P45984) (P45984 whole entry, change not shown): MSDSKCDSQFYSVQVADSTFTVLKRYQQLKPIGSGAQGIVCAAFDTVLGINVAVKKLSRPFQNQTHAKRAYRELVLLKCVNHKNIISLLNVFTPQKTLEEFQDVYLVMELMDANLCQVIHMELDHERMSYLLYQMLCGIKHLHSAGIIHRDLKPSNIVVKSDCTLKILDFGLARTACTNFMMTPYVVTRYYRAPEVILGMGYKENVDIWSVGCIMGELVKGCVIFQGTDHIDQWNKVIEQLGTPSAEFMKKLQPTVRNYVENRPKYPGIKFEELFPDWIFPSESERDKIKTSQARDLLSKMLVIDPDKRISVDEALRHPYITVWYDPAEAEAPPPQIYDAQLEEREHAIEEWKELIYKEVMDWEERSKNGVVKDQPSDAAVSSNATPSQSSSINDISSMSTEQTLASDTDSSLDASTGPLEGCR
Chain of panel of more than 300 wild-type and mutant kinases (313 kinase panel) (Homo sapiens, UniProt Q15208) (Q15208 whole entry, change not shown): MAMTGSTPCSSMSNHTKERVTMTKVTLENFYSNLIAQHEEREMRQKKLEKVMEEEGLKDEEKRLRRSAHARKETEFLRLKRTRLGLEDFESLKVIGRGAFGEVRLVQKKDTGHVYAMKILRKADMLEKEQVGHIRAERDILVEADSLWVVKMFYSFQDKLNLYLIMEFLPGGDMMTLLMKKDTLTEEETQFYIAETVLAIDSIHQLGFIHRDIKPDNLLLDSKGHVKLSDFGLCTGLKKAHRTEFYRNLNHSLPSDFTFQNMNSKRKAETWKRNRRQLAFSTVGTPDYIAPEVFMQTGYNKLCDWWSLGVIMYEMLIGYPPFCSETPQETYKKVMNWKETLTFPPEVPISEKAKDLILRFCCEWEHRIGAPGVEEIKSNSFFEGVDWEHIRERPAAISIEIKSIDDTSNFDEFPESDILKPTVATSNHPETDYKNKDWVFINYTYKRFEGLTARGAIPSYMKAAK

SMILES | %-inhibition, CDK6/CycD3 [1, 8] | %-inhibition of DDR2 ([2]; kinase DDR2, compound at 1 μM) | %-inhibition of NDR1 ([3]; 1 µM) | %-inhibition of MARK2 ([4]; 1 µM) | %-inhibition of JAK1 ([5]; kinase JAK1, compound at 1 μM) | %-inhibition of NDR1 ([3]; kinase NDR1, 1 μM) | %-inhibition of JNK2 ([6]; kinase JNK2, compound at 1 μM) | %-inhibition of MARK2 ([4]; kinase MARK2, compound at 1 μM) | %-inhibition of MAP3K5 [7, 9] | %-inhibition, CDK6/CycD3 ([1]; 1 µM) | %-inhibition of DDR2 ([2]; 1 µM) | %-inhibition of JNK2 ([6]; 1 µM) | %-inhibition of JAK1 ([5]; 1 µM) | %-inhibition of MAP3K5 ([7]; 1 µM)
COc1cc(Nc2c(C#N)cnc3cc(OCCCN4CCN(C)CC4)c(OC)cc23)c(Cl)cc1Cl [bosutinib] | 0.0624% | 96% | -3.49% | 58% | -2% | – | – | – | – | – | – | – | – | –
COc1cc2nccc(Oc3ccc(NC(=O)C4(C(=O)Nc5ccc(F)cc5)CC4)cc3)c2cc1OC [cabozantinib] | 0.312% | 99% | – | – | -1.59% | -5.4% | 4% | -4% | 1.72% | – | – | – | – | –
C[C@@H](Oc1cc(-c2cnn(C3CCNCC3)c2)cnc1N)c1c(Cl)ccc(F)c1Cl [crizotinib] | 0.0624% | 88% | – | – | 47% | -1.48% | -2.59% | 26% | 1.11% | – | – | – | – | –
CC(C)(C)c1nc(-c2cccc(NS(=O)(=O)c3c(F)cccc3F)c2F)c(-c2ccnc(N)n2)s1 [dabrafenib] | – | 100% | – | – | 5.7% | -0.891% | -0.947% | 2.85% | – | – | – | – | – | –
Cc1nc(Nc2ncc(C(=O)Nc3c(C)cccc3Cl)s2)cc(N2CCN(CCO)CC2)n1 [dasatinib] | 9% | – | – | – | – | -1.85% | – | – | -1.69% | – | – | – | – | –
C#Cc1cccc(Nc2ncnc3cc(OCCOC)c(OCCOC)cc23)c1 [erlotinib] | – | – | 3.48% | 7% | – | – | – | – | – | 9% | 43% | 13% | 8% | 5%
CO[C@H]1C[C@@H]2CC[C@@H](C)[C@@](O)(O2)C(=O)C(=O)N2CCCC[C@H]2C(=O)O[C@H]([C@H](C)C[C@@H]2CC[C@@H](OCCO)[C@H](OC)C2)CC(=O)[C@H](C)/C=C(\C)[C@@H](O)[C@@H](OC)C(=O)[C@H](C)C[C@H](C)/C=C/C=C/C=C/1C [everolimus] | -3% | 0% | – | – | -7% | -7% | -5.37% | -6% | 2.56% | – | – | – | – | –
O=S(=O)(c1cccc2cnccc12)N1CCCNCC1 [fasudil] | -5.68% | 0.102% | – | – | -1.43% | 18% | -5% | 3.21% | -15% | – | – | – | – | –
CS(=O)(=O)CCNCc1ccc(-c2ccc3ncnc(Nc4ccc(OCc5cccc(F)c5)c(Cl)c4)c3c2)o1 [lapatinib] | 5% | 83% | – | – | -3% | -0.543% | -8% | 10% | 6% | – | – | – | – | –
Cc1cn(-c2cc(NC(=O)c3ccc(C)c(Nc4nccc(-c5cccnc5)n4)c3)cc(C(F)(F)F)c2)cn1 [nilotinib] | -23% | 102% | – | – | – | -3% | 9% | 0.732% | -2.28% | – | – | – | 13% | –
Cc1ccc(Nc2nccc(N(C)c3ccc4c(C)n(C)nc4c3)n2)cc1S(N)(=O)=O [pazopanib] | 9% | 96% | – | – | 9% | 2.49% | – | 8% | 18% | – | – | – | – | –
Cc1ccc(C(=O)Nc2ccc(CN3CCN(C)CC3)c(C(F)(F)F)c2)cc1C#Cc1cnc2cccnn12 [ponatinib] | 25% | 101% | – | – | 99% | – | – | – | – | – | – | – | – | –
CNC(=O)c1cc(Oc2ccc(NC(=O)Nc3ccc(Cl)c(C(F)(F)F)c3)c(F)c2)ccn1 [regorafenib] | -1.31% | 102% | – | – | 31% | -9% | 57% | 2.17% | 5% | – | – | – | – | –
N#CC[C@H](C1CCCC1)n1cc(-c2ncnc3[nH]ccc23)cn1 [ruxolitinib] | -6% | 49% | – | – | – | 88% | -6% | – | 6% | – | – | – | – | –
CCN(CC)CCNC(=O)c1c(C)[nH]c(/C=C2\C(=O)Nc3ccc(F)cc32)c1C [sunitinib] | – | – | – | – | – | 9% | – | – | – | – | – | – | – | –
CO[C@H]1C[C@@H]2CC[C@@H](C)[C@@](O)(O2)C(=O)C(=O)N2CCCC[C@H]2C(=O)O[C@H]([C@H](C)C[C@@H]2CC[C@@H](OC(=O)C(C)(CO)CO)[C@H](OC)C2)CC(=O)[C@H](C)/C=C(\C)[C@@H](O)[C@@H](OC)C(=O)[C@H](C)C[C@H](C)/C=C/C=C/C=C/1C [temsirolimus] | -3.18% | -4% | – | – | -7% | -4.55% | -4.61% | -6% | 2.79% | – | – | – | – | –
